Measurements published in patent US11084833B2, “Antibacterial agents against D,D- and L,D-transpeptidases” (priority 2016, dated 2021).
“Also recorded” adds a separate entry of the source. Where two headings read alike, the source gives them in different places.

System: LdtMt2 constructs with single amino acid mutations (Tyr318, His336, His352 and Cys354)
Assay type: binding, M. tuberculosis

Compound	adduct formation with mutants (UPLC-MS, any of the mutant proteins)	ITC binding to mutants	adduct formation with mutants
C[C@@H](O)[C@H]1C(=O)N2C(C(=O)[O-])=C(SC3Cn4cnc[n+]4C3)[C@H](C)[C@H]12 (some centres unmarked) [biapenem]	no adducts could be detected	–	–
C[C@@H](O)[C@H]1C(=O)N2C(C(=O)O)=C([C@H]3CCCO3)S[C@H]12 [faropenem]	–	loss of binding	failed to produce adducts; also recorded: did produce stable adducts
C[C@@H](O)[C@H]1C(=O)N2C(C(=O)O)=C(SC3CN(C4=NCCS4)C3)[C@H](C)[C@H]12 [tebipenem]	–	loss of binding	failed to produce adducts; also recorded: did produce stable adducts
